Assay [1] has as its target Rho-associated protein kinase 2 (Homo sapiens) (UniProt O75116). Particulars: Compound concentration 1000.0 nM.
Assay [2] addresses Alpha-1B adrenergic receptor (Homo sapiens) (UniProt P35368). Particulars: Compound concentration 10.0 uM.
The target in assay [3] is T1, Mitogen-activated protein kinase kinase kinase kinase 3 (Homo sapiens) (UniProt Q8IVH8).
T1 sequence (whole entry): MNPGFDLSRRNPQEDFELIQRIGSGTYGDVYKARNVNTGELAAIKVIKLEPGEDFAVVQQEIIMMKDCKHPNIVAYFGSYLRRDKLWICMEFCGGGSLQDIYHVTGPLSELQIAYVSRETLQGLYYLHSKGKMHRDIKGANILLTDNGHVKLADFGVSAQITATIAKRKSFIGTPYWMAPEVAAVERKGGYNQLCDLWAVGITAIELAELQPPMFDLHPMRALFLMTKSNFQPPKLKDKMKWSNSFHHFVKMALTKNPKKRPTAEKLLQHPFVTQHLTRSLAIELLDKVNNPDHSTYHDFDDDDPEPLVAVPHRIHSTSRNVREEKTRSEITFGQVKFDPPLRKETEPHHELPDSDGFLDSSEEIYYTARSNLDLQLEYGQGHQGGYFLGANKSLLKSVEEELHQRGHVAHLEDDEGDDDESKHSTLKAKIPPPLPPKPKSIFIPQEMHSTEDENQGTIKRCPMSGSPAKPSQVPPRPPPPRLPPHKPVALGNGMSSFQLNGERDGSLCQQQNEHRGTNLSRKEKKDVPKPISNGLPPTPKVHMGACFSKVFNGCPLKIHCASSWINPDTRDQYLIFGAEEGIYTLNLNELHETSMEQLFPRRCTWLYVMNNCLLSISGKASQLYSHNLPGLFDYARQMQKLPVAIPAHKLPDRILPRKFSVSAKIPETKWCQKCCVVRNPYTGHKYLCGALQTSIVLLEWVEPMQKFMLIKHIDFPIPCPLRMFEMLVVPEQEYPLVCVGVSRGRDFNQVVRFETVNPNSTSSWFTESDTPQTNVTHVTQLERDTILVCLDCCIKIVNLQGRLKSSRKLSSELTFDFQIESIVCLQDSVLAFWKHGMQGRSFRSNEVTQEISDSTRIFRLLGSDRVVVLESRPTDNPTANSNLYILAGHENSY
The conditions noted are these: Compound concentration 1000.0 nM.

Assay [4] concerns the target Calcium/calmodulin-dependent protein kinase type 1D (Homo sapiens) (UniProt Q8IU85). Particulars: Compound concentration 1000.0 nM.
In assay [5] the target is Macrophage-stimulating protein receptor (Homo sapiens) (UniProt Q04912). The conditions noted are these: Compound concentration 1000.0 nM.
Assay [6] deals with Phosphatidylinositol 4,5-bisphosphate 3-kinase catalytic subunit alpha isoform (Homo sapiens), P42336 [E545K]. Particulars: Compound concentration 1000.0 nM.
Phosphatidylinositol 4,5-bisphosphate 3-kinase catalytic subunit alpha isoform (Homo sapiens), P42336 [E545K], sequence (P42336 whole entry E545K, canonical isoform): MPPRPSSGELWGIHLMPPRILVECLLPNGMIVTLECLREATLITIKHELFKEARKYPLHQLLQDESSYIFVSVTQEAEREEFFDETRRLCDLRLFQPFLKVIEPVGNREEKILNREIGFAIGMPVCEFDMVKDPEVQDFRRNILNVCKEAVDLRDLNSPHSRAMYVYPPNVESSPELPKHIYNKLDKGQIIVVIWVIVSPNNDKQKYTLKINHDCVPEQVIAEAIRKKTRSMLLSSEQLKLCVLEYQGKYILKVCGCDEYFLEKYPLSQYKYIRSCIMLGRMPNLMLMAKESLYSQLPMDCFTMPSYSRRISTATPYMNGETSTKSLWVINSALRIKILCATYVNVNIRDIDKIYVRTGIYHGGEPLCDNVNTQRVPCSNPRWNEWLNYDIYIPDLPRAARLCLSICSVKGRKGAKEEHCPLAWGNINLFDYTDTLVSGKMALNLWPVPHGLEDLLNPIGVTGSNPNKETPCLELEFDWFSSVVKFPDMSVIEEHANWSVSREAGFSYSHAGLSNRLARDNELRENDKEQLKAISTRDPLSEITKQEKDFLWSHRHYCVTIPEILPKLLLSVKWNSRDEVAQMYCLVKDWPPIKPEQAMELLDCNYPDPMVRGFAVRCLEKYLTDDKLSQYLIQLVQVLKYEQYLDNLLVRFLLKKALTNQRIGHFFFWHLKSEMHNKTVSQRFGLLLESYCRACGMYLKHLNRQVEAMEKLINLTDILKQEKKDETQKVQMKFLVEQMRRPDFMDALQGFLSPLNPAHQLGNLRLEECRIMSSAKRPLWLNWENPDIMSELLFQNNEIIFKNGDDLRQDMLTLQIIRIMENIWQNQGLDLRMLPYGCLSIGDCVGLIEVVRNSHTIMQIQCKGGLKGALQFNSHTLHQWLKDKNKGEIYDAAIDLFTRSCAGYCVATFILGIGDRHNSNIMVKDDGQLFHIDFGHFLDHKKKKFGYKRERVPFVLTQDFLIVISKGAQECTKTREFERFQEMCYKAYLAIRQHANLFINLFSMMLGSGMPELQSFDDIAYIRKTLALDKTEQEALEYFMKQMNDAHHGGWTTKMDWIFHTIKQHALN
The target of assay [7] is Phosphatidylinositol 3-kinase catalytic subunit type 3 (Homo sapiens) (UniProt Q8NEB9). Particulars: Compound concentration 1000.0 nM.
Assay [8] has as its target T2, Inhibitor of nuclear factor kappa-B kinase subunit beta (Homo sapiens) (UniProt O14920).
T2 sequence (whole entry): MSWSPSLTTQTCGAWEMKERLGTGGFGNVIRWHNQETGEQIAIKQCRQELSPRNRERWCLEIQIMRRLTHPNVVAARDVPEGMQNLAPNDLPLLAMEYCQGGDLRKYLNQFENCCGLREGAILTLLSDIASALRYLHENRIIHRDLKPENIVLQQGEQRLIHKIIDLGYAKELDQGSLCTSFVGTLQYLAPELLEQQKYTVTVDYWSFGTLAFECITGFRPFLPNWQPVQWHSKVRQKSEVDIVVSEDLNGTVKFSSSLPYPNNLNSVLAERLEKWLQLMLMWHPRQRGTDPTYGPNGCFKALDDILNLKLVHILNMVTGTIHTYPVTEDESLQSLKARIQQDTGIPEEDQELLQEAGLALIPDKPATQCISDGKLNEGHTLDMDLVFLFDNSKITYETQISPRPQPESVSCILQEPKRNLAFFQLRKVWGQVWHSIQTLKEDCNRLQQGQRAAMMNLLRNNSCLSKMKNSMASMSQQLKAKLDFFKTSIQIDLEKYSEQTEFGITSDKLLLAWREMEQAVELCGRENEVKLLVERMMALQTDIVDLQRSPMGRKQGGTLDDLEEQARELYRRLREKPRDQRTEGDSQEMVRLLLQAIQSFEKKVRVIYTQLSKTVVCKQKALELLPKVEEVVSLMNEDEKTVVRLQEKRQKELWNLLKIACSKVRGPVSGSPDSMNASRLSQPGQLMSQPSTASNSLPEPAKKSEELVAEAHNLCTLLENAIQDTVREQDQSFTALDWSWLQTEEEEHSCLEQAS
Particulars: Compound concentration 1000.0 nM.

Assay [9] concerns Tyrosine-protein kinase ABL1 (Homo sapiens), P00519 [F317I]. Particulars: Compound concentration 1000.0 nM.
Tyrosine-protein kinase ABL1 (Homo sapiens), P00519 [F317I], sequence (P00519 whole entry F317I): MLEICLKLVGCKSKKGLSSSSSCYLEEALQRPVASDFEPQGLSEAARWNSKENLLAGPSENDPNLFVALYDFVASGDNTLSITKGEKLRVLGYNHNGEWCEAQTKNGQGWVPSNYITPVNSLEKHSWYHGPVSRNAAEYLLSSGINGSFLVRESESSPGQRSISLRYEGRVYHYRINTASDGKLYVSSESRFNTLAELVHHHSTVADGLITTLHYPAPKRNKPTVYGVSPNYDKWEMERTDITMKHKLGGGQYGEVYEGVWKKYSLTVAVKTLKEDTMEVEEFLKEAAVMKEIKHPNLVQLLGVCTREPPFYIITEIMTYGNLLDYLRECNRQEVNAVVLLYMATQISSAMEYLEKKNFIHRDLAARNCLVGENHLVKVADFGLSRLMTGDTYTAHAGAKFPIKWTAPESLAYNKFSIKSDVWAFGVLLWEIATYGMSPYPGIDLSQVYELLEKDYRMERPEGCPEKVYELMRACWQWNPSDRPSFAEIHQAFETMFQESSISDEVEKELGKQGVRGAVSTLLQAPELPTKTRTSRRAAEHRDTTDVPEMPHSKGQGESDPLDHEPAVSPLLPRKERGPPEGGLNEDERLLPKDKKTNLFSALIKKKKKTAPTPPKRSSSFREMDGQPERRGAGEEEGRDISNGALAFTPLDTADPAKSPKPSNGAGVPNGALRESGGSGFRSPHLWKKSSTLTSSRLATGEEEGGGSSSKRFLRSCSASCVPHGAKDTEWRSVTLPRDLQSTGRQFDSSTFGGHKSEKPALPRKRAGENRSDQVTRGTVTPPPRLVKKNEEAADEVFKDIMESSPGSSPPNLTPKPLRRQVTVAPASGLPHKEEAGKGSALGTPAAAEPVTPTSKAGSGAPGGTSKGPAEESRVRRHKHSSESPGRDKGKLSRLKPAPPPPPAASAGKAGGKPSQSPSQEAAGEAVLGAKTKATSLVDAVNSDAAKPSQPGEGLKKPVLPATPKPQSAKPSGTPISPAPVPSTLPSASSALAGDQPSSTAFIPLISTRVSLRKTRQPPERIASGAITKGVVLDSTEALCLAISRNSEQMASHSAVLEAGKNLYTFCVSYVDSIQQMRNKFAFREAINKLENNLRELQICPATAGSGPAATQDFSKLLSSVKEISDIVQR
The target in assay [10] is Serine/threonine-protein kinase pim-3 (Homo sapiens) (UniProt Q86V86). The conditions noted are these: Compound concentration 1000.0 nM.
Assay [11] deals with T3, Rhodopsin kinase GRK1 (Homo sapiens) (UniProt Q15835).
T3 sequence (whole entry): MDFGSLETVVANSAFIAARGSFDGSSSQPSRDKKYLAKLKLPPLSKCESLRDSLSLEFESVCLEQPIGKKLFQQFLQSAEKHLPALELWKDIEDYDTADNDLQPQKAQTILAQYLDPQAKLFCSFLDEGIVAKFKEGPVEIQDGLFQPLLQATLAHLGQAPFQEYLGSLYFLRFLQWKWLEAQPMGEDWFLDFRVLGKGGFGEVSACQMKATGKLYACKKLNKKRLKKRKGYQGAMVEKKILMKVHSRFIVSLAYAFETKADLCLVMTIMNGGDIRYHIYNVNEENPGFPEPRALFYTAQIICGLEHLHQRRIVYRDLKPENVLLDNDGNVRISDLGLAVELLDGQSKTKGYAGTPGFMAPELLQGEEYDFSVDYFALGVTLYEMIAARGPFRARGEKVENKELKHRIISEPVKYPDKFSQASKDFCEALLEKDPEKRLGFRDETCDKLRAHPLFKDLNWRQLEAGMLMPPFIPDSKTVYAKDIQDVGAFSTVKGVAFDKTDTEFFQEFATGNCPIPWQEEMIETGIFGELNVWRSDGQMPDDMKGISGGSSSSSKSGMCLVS
The conditions noted are these: Compound concentration 1000.0 nM.

The target in assay [12] is Vascular endothelial growth factor receptor 1 (Homo sapiens) (UniProt P17948). Particulars: Compound concentration 1000.0 nM.
In assay [13] the test system is Epidermal growth factor receptor (Homo sapiens), P00533 [UNDEFINED MUTATION]. Particulars: Compound concentration 1000.0 nM.
Epidermal growth factor receptor (Homo sapiens), P00533 [UNDEFINED MUTATION], sequence (P00533 whole entry, looked up, stated change not applied): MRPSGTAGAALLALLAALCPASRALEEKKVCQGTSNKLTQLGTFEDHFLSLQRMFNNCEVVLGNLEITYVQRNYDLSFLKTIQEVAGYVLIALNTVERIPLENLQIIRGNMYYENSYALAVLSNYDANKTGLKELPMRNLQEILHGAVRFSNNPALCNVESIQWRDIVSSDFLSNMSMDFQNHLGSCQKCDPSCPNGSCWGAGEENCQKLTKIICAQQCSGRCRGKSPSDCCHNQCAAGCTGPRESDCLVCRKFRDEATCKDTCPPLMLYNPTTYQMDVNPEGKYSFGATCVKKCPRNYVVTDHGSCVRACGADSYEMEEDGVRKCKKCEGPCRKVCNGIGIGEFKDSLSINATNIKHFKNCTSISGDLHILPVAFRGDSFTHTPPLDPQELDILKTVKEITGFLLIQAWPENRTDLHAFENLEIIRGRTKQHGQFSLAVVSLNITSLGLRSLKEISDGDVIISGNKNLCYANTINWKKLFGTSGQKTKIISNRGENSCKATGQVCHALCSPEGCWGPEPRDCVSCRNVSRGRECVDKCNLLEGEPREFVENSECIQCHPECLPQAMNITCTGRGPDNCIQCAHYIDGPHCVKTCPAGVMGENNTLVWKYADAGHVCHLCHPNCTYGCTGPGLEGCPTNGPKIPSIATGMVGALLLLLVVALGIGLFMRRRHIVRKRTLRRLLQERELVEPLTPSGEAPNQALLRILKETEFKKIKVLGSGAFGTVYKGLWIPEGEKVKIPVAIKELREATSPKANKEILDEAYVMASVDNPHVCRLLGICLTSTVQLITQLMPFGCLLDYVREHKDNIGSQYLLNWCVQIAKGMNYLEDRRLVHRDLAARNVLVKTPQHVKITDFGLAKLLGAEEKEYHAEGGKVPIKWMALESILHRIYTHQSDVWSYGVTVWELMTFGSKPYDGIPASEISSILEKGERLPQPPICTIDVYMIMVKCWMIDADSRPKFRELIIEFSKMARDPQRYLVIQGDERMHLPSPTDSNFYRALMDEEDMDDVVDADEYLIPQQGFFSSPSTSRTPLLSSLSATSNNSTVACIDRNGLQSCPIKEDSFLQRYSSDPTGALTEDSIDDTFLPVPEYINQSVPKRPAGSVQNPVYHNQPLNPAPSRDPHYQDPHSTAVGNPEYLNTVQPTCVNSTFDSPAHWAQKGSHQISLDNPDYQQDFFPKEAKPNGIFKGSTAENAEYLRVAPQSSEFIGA
Assay [14] has as its target Protein kinase C delta type (Homo sapiens) (UniProt Q05655). The conditions noted are these: Compound concentration 1000.0 nM.
In assay [15] the target is Mitogen-activated protein kinase kinase kinase 15 (Homo sapiens) (UniProt Q6ZN16). The conditions noted are these: Compound concentration 1000.0 nM.

Protein kinase C delta type (Homo sapiens), sequence (Q05655 whole entry, looked up): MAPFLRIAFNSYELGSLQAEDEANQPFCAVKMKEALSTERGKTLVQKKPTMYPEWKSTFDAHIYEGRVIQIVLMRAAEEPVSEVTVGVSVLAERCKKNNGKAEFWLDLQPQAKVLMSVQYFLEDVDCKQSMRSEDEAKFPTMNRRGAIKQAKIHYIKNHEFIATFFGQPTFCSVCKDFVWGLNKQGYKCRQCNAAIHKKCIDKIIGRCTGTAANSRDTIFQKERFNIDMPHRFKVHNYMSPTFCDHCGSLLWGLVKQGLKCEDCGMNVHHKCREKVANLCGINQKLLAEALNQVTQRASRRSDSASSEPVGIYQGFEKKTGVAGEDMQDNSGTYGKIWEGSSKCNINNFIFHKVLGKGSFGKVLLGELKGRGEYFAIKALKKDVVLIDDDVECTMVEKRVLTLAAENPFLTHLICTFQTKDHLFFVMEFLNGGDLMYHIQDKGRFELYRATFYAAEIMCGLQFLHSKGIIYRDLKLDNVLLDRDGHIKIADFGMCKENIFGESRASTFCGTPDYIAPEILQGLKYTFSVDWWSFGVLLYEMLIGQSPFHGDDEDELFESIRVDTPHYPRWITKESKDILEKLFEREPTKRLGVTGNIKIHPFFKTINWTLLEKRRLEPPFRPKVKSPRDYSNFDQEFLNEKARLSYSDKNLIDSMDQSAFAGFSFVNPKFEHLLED
Calcium/calmodulin-dependent protein kinase type 1D (Homo sapiens), sequence (Q8IU85 whole entry, looked up): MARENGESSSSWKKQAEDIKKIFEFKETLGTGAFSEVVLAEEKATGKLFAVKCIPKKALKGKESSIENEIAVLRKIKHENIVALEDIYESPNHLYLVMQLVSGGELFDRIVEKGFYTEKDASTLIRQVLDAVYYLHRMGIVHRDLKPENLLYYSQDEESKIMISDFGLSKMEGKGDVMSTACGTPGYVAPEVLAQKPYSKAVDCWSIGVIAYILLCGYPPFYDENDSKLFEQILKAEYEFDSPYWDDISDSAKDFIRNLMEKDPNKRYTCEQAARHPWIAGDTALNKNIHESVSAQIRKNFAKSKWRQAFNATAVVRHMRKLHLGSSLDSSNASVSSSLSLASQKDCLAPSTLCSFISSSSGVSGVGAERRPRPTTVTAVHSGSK

`CC1=C(C#N)C(c2ccc3c(c2)c(NC(=O)c2ccccc2C)nn3C)C(C#N)=C(C)N1` [BAY-974]: the residual activity in [1] is 93%; in assay [3], 80%; in assay [4], 93%; in assay [5], 95%; in assay [6], 90%; in [7], 87%. The residual activity is 95% in [8]; 78% in [9]; 100% in [10]; 88% in assay [11]; 100% in [12]; 73% in assay [13]. For the same molecule, the values for the residual activity in assay [14] and in assay [15] were 100% and 96%, respectively. Moreover, the inhibition in assay [2] was -4.61%.
Turning to `CCc1ccccc1C(=O)Nc1n[nH]c2c(C)c(F)c(C3C(C#N)=C(C)N(C)C(C)=C3C#N)cc12` [BAY-3827], the residual activity in [1] was 100%; in assay [3], 100%; in [4] it was 87%; in assay [5], 100%; in assay [6] it was 100%; in assay [7] it was 100%. Further, the residual activity in assay [8] is 94%; in assay [9], 100%; in assay [10], 100%; in assay [11] it was 43%; in assay [12] it was 72%; in assay [13], 79%. Moreover, the residual activity is 55% in assay [14] and 96% in assay [15]. Further, the inhibition in assay [2] was -9.38%.

The inhibition is the drop in the measured response relative to a control, in per cent.
